Measured values: US20240117303A1, “METHODS AND COMPOSITIONS FOR GENERATING HUMAN MIDBRAIN DOPAMINERGIC NEURONS FROM NEURAL PROGENITOR CELLS” (Trailhead Biosystems Inc., priority 2022, published 2024)
“Also recorded” adds a separate entry of the source.

Key:
[1] = tested on: stage 1 neural stem cells; assay: HD-DoE 12-factor experiment for stage 2 recipe (second model, FIG. 8-10, 13); format: cell-based, human; conditions: dynamic profile, 12 effectors
Description: To test additional factors like FGF8 that is routinely used in midbrain differentiation protocols, we ran another 12-factor experiment consisting of LDN193189, BMP7, A 83-01, Activin A, Takinib, PD0325901, MK2206, FGF8b, AZD3147, MHY1485, GSI-XX and Yhhu 3792. Similar to the previous experiment, hiPSCs were treated with stage 1 media for 3 days and then treated with 96 conditions of combinations of the factors for an additional 3 days. When this model was optimized for maximum expression of FOXA2, BMP7 with factor contribution of 13.7 and MK2206 with 14.2 had the most impact on its expression followed by AZD 3147 with factor contribution of 10.9.
(§1) To assess the impact of elimination of each validated factor, we used dynamic profile analysis and compared the expression level of genes of interest in absence of each finalized factor while others are present.
(§2) In the stage 2 recipe, each of the six finalized factors were removed while the other five factors were present and the expression levels of FOXA2, LMX1A and GBX2 were assessed, compared to the levels in the presence of all factors. According to the first experiment model, the absence of TTNPB lead to a rise of GBX2 expression, while the value of FOXA2 and LMX1A reduced drastically from 10,000 to 0 and 30,000 to 15,000, respectively. The absence of A 83-01 reduced the expression of FOXA2 from 10,000 to 7000, however, as expected, the value of LMX1A increased from 30,000 to 40,000. […] According to the second experiment model, the absence of BMP7 and MK2206 both reduced the level of FOXA2 while increasing the value of LMX1A, with BMP7 as the main effector that led to 0 expression of FOXA2.

[2] = tested on: stage 1 neural stem cells; assay: HD-DoE 12-factor experiment for stage 2 recipe (first model, FIG. 5-7, 12); format: cell-based, human
Text: To further guide the differentiation of midbrain-committed neural stem cells to neural progenitor cells at stage 2, we performed an additional HD-DoE experiment. We thereby obtained additional gene regulatory models that were used for preparation of differentiation protocol. The basis of this was a 12-factor HD-DoE experiment with focus on initiation of differentiation of cells toward midbrain neural progenitor cells for an additional 3 days after termination of stage 1 treatment. Here, we focused on expression of LMX1A and FOXA2 in neural progenitor cells with low to zero expression of GBX2. LMX1A had significant high expression level in the model with value of 47888. Therefore, we used optimization setting for this gene to identify the positive factors. The factors in this experiment included SC79, MK2206, ZM336372, PD0325901, CHIR99021, A 83-01, TTNPB, AGN193109, GW3965, SR9243, Purmorphamine and GSI-XX.
as §1, §2

[3] = tested on: human pluripotent stem cells; assay: HD-DoE 13-factor experiment for stage 1 recipe, gene expression modeled after 3-day treatment; dynamic profile and factor criticality analysis; format: cell-based; conditions: for impact on expression of FOXA2 / impact on expression of OTX2: 13 effectors; for expression level of LMX1A in absence of the factor / expression level of FOXA2 in absence of the factor / expression level of DMBX1 in absence of the factor / expression level of OTX2 in absence of the factor: stage 1 recipe, other four factors present; for expression level of LMX1A in absence of the factor: 300 with all five factors; for expression level of FOXA2 in absence of the factor: 600 with all five factors; for expression level of DMBX1 in absence of the factor: 3000 with all five factors; for expression level of OTX2 in absence of the factor: 12000 with all five factors
Text: This example utilizes a method of High-Dimensional Design of Experiments (HD-DoE), as previously described in Bukys et al. (2020) Iscience 23:101346. The method employs computerized design geometries to simultaneously test multiple process inputs and offers mathematical modeling of a deep effector/response space. The method allows for finding combinatorial signaling inputs that control a complex process, such as during cell differentiation. It allows testing of multiple plausible critical process parameters, as such parameters impact output responses, such as gene expression. Because gene expression provides hallmark features of the phenotype of, for example, a human cell, the method can be applied to identify, and understand, which signaling pathways control cell fate. In the current example, the HD-DOE method was applied with the intent to find conditions for induction of midbrain neural progenitor-expressed genes, directly from the pluripotent stem cell state.
To develop the recipe for each stage, the impact of agonists and antagonists of multiple signaling pathways (referred to herein as “effectors”) on the expression of two sets of 53 pre-selected genes after a 3-day treatment was tested and modeled. These effectors are small molecules or proteins that are commonly used during stepwise differentiation of stem cells to specific fates. The choice of the effectors to test was based on current literature on neural induction in the midbrain region of the developing brain and differentiation of stem cells to neural progenitors.
To test the effectors, experiments with at least 8 factors were designed that can assess the response of cells to 48 or more different combinations of effectors in a range of concentrations. To analyze the models, we focused on expression of genes expressed in the midbrain region, including OTX2, DMBX1, FOXA2, LMX1A, and on the absence of GBX2, which is a hindbrain marker. The impact of each effector on gene expression level is defined by a parameter called factor contribution that is calculated for each effector during the modeling.
To identify the recipe of stage 1 of differentiation, cells were treated with various effectors for 3 days and the gene expression of cells was modeled. […] This model consisted of 13 factors including LDN193189, PD173074, BLU9931, Purmorphamine, SC79, MK2206, ZM336372, PD0325901, CHIR99021, XAV939, UCLA-gp130, Tofacitinib and GO 6983.
as §1
In the stage 1 recipe, each of the five finalized factors were removed while the other four factors were present and the expression levels of OTX2, DMBX1, FOXA2 and LMX1A was assessed compared to the levels in the presence of all five factors (FIG. 11A-B). […] Expression level of DMBX1 increased in absence of LDN193189, however values of OTX2, FOXA2 and LMX1A decreased.

[4] = tested on: stage 2 neural progenitors; assay: HD-DoE 12-factor model for stage 3 recipe (FIG. 19-23, 29); format: cell-based, human
Text: To develop the neuronal differentiation recipes, the impact of various agonist and antagonists (effectors) on maturation of MB neural progenitors was investigated using the HD-DoE method described in Example 1. These effectors were chosen based on available literature on developmental biology, differentiation of stem cells as well as mouse and human single cell RNA-seq data from midbrain neurons at the time.
To engineer the recipe of stage 3 of differentiation, cells were first cultured in the stage 1 and stage 2 media as described herein, then they were treated with combinations of 8 or 12 factors for 3 days and the gene expression of cells in each condition was modeled. To guide the cells towards a subtype of midbrain dopaminergic neurons that reside in Substantia Nigra pars compacta (SNc) region of the brain, neural progenitors need to be SOX6^+ (Pereira et al. (2021) Cell Rep. 37:109975 Oosterveen et al. (2021) Stem Cell Reports 16:2718-2735 Poulin et al. (2020) Trends Neurosci. 43:155-169). CORIN, NGN2 and MSX1 are other markers involved in neurogenesis of dopaminergic neurons originating from floorplate region of developing midbrain (Wang et al. (2020) Cells 9:1489; Samata et al. (2016) Nat Commun. 7:13097; Ono et al. (2007) Development 134:3213-3225; Prakash et al. (2006) J. Physiol. 575:403410).
Therefore, we focused on maximizing expression of SOX6, CORIN, NGN2 and MSX1 in modeling experiments. One of the 12-factor models, the results of which are shown in FIG. 19, including LDN193189, AGN193109, BMP7, TTNPB, PD0325901, A8301, MHY1485, CHIR99021, XAV939, SANT-1, Purmorphamine and MK2206, provided a combination set that could maximize expression level of CORIN to more than 2000.
To assess the impact of elimination of each validated factor identified in Example 5 for the stage 3 and stage 4 recipes, we used dynamic profile analysis and compared the expression level of genes of interest in absence of each finalized factor while others are present.
In the stage 3 recipe, each of the finalized factors were removed in their respective models while other factors were present and the expression level of genes of interest was assessed compared to presence of all factors. When AGN193109 was excluded, level of all CORIN, KCNJ6, MSX1 and SOX6 decreased from 900 to 450, 50 to 35, 140 to 110 and 105 to 60, respectively. […] When PD0325901 was removed, expression levels of CORIN and KCNJ6 increased to 1200 and 70 while levels of MSX1 and SOX6 decreased to 105 and 20. In the absence of CHIR99021, the expression level of CORIN was again increased to 1200 while the level of KCNJ6 and MSX1 dropped to 50 and 115. […] Therefore, it was decided to include this compound in the final recipe. […] Therefore, CHIR99021 was also included in the final recipe.

[5] = Purmorphamine added to the original 4 effectors, dynamic profile
[6] = model optimized for maximum expression of FOXA2, positive effect

SMILES: C[C@H](NC(=O)Cc1cc(F)cc(F)c1)C(=O)N[C@@H]1C(=O)N(C)c2ccccc2-c2ccccc21 [GSI-XX]
- impact on expression of FOXA2 [1]: did not make a meaningful positive change
- impact on expression of LMX1A [1]: did not make a meaningful positive change

SMILES: c1ccc2c(Oc3nc(Nc4ccc(N5CCOCC5)cc4)c4ncn(C5CCCCC5)c4n3)cccc2c1 [Purmorphamine]
- impact on expression of FOXA2 ([2]; dynamic profile / model, 12 effectors): positive effect; also recorded: positive impact
- factor contribution ([2]; model optimized for maximum expression of FOXA2, positive impact): 15.3
- factor contribution ([2]; negative effect on LMX1A expression levels): 26.2
- expression level of FOXA2 ([2]; without addition of Purmorphamine, dynamic profile): 5000
- impact on expression of DMBX1 ([3]; OTX2-optimized setting): did not have a positive impact
- impact on expression of LMX1A ([3]; OTX2-optimized setting): did not have a positive impact
- expression level of DMBX1 [3, 5]: 3000
- expression level of LMX1A [3, 5]: 450
- expression level of OTX2 [3, 5]: 11000
- impact on expression of FOXA2 ([3]; dynamic profile): positive impact
- impact on expression of OTX2 ([3]; dynamic profile): did not have a positive impact
- factor contribution [3, 6]: 22.2
- expression level of LMX1A in absence of the factor [3]: beneficial
- expression level of FOXA2 in absence of the factor [3]: reduction
- expression level of DMBX1 in absence of the factor [3]: beneficial
- expression level of OTX2 in absence of the factor [3]: beneficial

SMILES: CCOC(=O)C1=C(N)Oc2ccc(Cl)cc2C1C(C#N)C(=O)OCC (stereo not shown) [SC79]
- factor contribution ([2]; model optimized for LMX1A, positive impact): 7.3

SMILES: Cc1nn(-c2ccccc2)c(C)c1/C=N/N1CCN(Cc2ccccc2)CC1 [SANT-1]
- factor contribution ([4]; model maximizing expression of CORIN, negative impact): 9.9

SMILES: c1ccc2c(-c3cnn4cc(-c5ccc(N6CCNCC6)cc5)cnc34)ccnc2c1 [LDN193189]
- impact on expression of FOXA2 ([3]; dynamic profile): positive impact
- impact on expression of OTX2 ([3]; dynamic profile): positive impact
- factor contribution [3, 6]: 13.6
- factor contribution ([3]; model optimized for maximum expression of OTX2, positive impact, 3-day treatment): 11.9
- expression level of LMX1A in absence of the factor [3]: decreased
- expression level of FOXA2 in absence of the factor [3]: decreased
- expression level of DMBX1 in absence of the factor [3]: increased
- expression level of OTX2 in absence of the factor [3]: decreased
- impact on expression level of MSX1 ([4]; dynamic profile, 12 effectors): high negative impact
- factor contribution ([4]; model maximizing expression of CORIN, positive regulatory impact): high positive factor contributions
- factor contribution ([4]; model optimized for MSX1, negative regulatory effect): 19.9
